Results taken from patent US11312727B1, “Macrocyclic flu endonuclease inhibitors” (Janssen BioPharma, Inc., priority 2018, dated 2022).

How the values were obtained:
[1] = test system: Influenza strain A549 A/WSN/33 (H1N1); assay: microbe, parasite or virus in culture; assay type: cell-based; details: Influenza A virus, A549, 20 h, A549 cells, influenza A/WSN/33 (H1N1), 20 hours incubation; read-out: A549_A(H1N1) EC50
in vitro = details: human, CC50, uninfected A549 cells, CellTiter-Glo

| SMILES | EC50 [1] [nM] | CC50 (in vitro) [nM] |
| --- | --- | --- |
| O=C1c2c(O)c(=O)ccn2N2CN1C/C=C\COc1cc(Cl)ccc1[C@H]2c1ccccc1 (single isomer, unassigned) [Compound 72A, (18*R,Z)-3-chloro-12-hydroxy-18-phenyl-6,9-dihydro-18H-10,17-methanobenzo[b]pyrido[1,2-f][1]oxa[5,6,9]triazacyclotridecine-11,13-dione] | > 1000 | > 2000 |
| O=C1c2c(O)c(=O)ccn2N2CN1C/C=C\COc1cc(Cl)ccc1[C@@H]2c1ccccc1 (single isomer, unassigned) [Compound 72B, (18*S,Z)-3-chloro-12-hydroxy-18-phenyl-6,9-dihydro-18H-10,17-methanobenzo[b]pyrido[1,2-f][1]oxa[5,6,9]triazacyclotridecine-11,13-dione] | 8 | > 2000 |
| O=C1c2c(O)c(=O)ccn2N2CN1C/C=C\COc1c(ccc(F)c1F)[C@H]2c1ccccc1 (single isomer, unassigned) [Compound 74A, (18*R,Z)-3,4-difluoro-12-hydroxy-18-phenyl-6,9-dihydro-18H-10,17-methanobenzo[b]pyrido[1,2-f][1]oxa[5,6,9]triazacyclotridecine-11,13-dione] | > 1000 | > 2000 |
| O=C1c2c(O)c(=O)ccn2N2CN1C/C=C\COc1c(ccc(F)c1F)[C@@H]2c1ccccc1 (single isomer, unassigned) [Compound 74B, (18*S,Z)-3,4-difluoro-12-hydroxy-18-phenyl-6,9-dihydro-18H-10,17-methanobenzo[b]pyrido[1,2-f][1]oxa[5,6,9]triazacyclotridecine-11,13-dione] | 2 | > 200 |
| O=C1c2c(O)c(=O)ccn2N2CN1C/C=C\COc1c(Cl)cccc1[C@H]2c1ccccc1 (single isomer, unassigned) [Compound 75A, (18*R,Z)-4-chloro-12-hydroxy-18-phenyl-6,9-dihydro-18H-10,17-methanobenzo[b]pyrido[1,2-f][1]oxa[5,6,9]triazacyclotridecine-11,13-dione] | 269 | > 2000 |
| O=C1c2c(O)c(=O)ccn2N2CN1C/C=C\COc1c(Cl)cccc1[C@@H]2c1ccccc1 (single isomer, unassigned) [Compound 75B, (18*S,Z)-4-chloro-12-hydroxy-18-phenyl-6,9-dihydro-18H-10,17-methanobenzo[b]pyrido[1,2-f][1]oxa[5,6,9]triazacyclotridecine-11,13-dione] | 3 | > 200 |
| O=C1c2c(O)c(=O)ccn2N2CN1CC/C=C/COc1cc(F)ccc1[C@@H]2c1ccccc1 (single isomer, unassigned) [Compound 77A, (7E,19*R)-3-fluoro-13-hydroxy-19-phenyl-9,10-dihydro-6H,19H-11,18-methanopyrido[2,1-i][1,7,10,11]benzoxatriazacyclotetradecine-12,14-dione] | 5280 | 33200 |
| O=C1c2c(O)c(=O)ccn2N2CN1C/C=C/CCc1ccccc1[C@H]2c1cccc(F)n1 (single isomer, unassigned) [Compound 78B, (16*S,E)-16-(6-fluoropyridin-2-yl)-4-hydroxy-7,10,11,16-tetrahydro-6,17-methanobenzo[k]pyrido[1,2-b][1,2,5]triazacyclotridecine-3,5-dione] | 6430 | 61600 |
| O=C1c2c(O)c(=O)ccn2N2CN1C[C@H]1C[C@@H]1COc1ccccc1[C@@H]2c1ccccc1 (single isomer, unassigned) [Compound 80AA, (1a*S,8*S,17a*S)-14-hydroxy-8-phenyl-1a,2,17,17a-tetrahydro-1H,8H-9,16-methanobenzo[b]cyclopropa[k]pyrido[1,2-f][1]oxa[5,6,9]triazacyclotridecine-13,15-dione] | 167 | > 1000 |
| O=C1c2c(O)c(=O)ccn2N2CN1C[C@@H]1C[C@H]1COc1ccccc1[C@@H]2c1ccccc1 (single isomer, unassigned) [Compound 80AB, (1a*R,8*S,17a*R)-14-hydroxy-8-phenyl-1a,2,17,17a-tetrahydro-1H,8H-9,16-methanobenzo[b]cyclopropa[k]pyrido[1,2-f][1]oxa[5,6,9]triazacyclotridecine-13,15-dione] | 66 | > 10000 |
| O=C1c2c(O)c(=O)ccn2N2CN1C[C@H]1C[C@@H]1COc1ccccc1[C@H]2c1ccccc1 (single isomer, unassigned) [Compound 80BA, (1a*S,8*R,17a*S)-14-hydroxy-8-phenyl-1a,2,17,17a-tetrahydro-1H,8H-9,16-methanobenzo[b]cyclopropa[k]pyrido[1,2-f][1]oxa[5,6,9]triazacyclotridecine-13,15-dione] | > 500 | > 1000 |
| O=C1c2c(O)c(=O)ccn2N2CN1C[C@@H]1C[C@H]1COc1ccccc1[C@H]2c1ccccc1 (single isomer, unassigned) [Compound 80BB, (1a*R,8*R,17a*R)-14-hydroxy-8-phenyl-1a,2,17,17a-tetrahydro-1H,8H-9,16-methanobenzo[b]cyclopropa[k]pyrido[1,2-f][1]oxa[5,6,9]triazacyclotridecine-13,15-dione] | > 500 | > 1000 |
| O=C1c2c(O)c(=O)ccn2N2CN1CCOC/C=C\c1cccc3c1[C@H]2c1ccccc1CC3 (single isomer, unassigned) [Compound 83A, (13Z,23b*R)-6-hydroxy-9,10,12,18,19,23b-hexahydro-1,8-methanobenzo[4,5]cyclohepta[1,2,3-qr]pyrido[1,2-c][9,2,3,6]benzoxatriazacyclotetradecine-5,7-dione] | > 500 | > 1000 |
| O=C1c2c(O)c(=O)ccn2N2CN1CCOC/C=C\c1cccc3c1[C@@H]2c1ccccc1CC3 (single isomer, unassigned) [Compound 83B, (13Z,23b*S)-6-hydroxy-9,10,12,18,19,23b-hexahydro-1,8-methanobenzo[4,5]cyclohepta[1,2,3-qr]pyrido[1,2-c][9,2,3,6]benzoxatriazacyclotetradecine-5,7-dione] | 6 | > 200 |
| O=C1c2c(O)c(=O)ccn2N2CN1CCC=CCOc1c(F)cccc1[C@@H]2c1ccccc1 (single isomer, unassigned) [Compound 84B, (19*S, E/Z)-4-fluoro-13-hydroxy-19-phenyl-9,10-dihydro-6H,19H-11,18-methanopyrido[2,1-i][1,7,10,11]benzoxatriazacyclotetradecine-12,14-dione] | 5 | > 200 |
| CC[C@H]1/C=C/COc2c(F)cccc2[C@@H](c2ccccc2)N2CN1C(=O)c1c(O)c(=O)ccn12 (single isomer, unassigned) [Compound 85AA, (9*S,18*R,E)-9-ethyl-4-fluoro-12-hydroxy-18-phenyl-6,9-dihydro-18H-10,17-methanobenzo[b]pyrido[1,2-f][1]oxa[5,6,9]triazacyclotridecine-11,13-dione] | 3 | > 200 |
| CC[C@@H]1/C=C/COc2c(F)cccc2[C@@H](c2ccccc2)N2CN1C(=O)c1c(O)c(=O)ccn12 (single isomer, unassigned) [Compound 85AB, (9*R,18*R,E)-9-ethyl-4-fluoro-12-hydroxy-18-phenyl-6,9-dihydro-18H-10,17-methanobenzo[b]pyrido[1,2-f][1]oxa[5,6,9]triazacyclotridecine-11,13-dione] | 2 | > 200 |
| CC[C@H]1/C=C/COc2c(F)cccc2[C@H](c2ccccc2)N2CN1C(=O)c1c(O)c(=O)ccn12 (single isomer, unassigned) [Compound 85BA, (9*S,18*S,E)-9-ethyl-4-fluoro-12-hydroxy-18-phenyl-6,9-dihydro-18H-10,17-methanobenzo[b]pyrido[1,2-f][1]oxa[5,6,9]triazacyclotridecine-11,13-dione] | > 500 | > 1000 |
| O=C1c2c(O)c(=O)ccn2N2CN1CCCC/C=C\c1cccc3c1[C@@H]2c1ccccc1CC3 (single isomer, unassigned) [Compound 86B, (13*Z,23b*R)-6-hydroxy-10,11,12,18,19,23b-hexahydro-9H-1,8-methanobenzo[4,5]cyclohepta[1,2,3-qr]pyrido[1,2-c][2,3,6]benzotriazacyclotetradecine-5,7-dione] | 27 | > 2000 |
| O=C1c2c(O)c(=O)ccn2N2CN1CC/C=C\COc1cc(F)c(F)c3c1[C@@H]2c1ccccc1SC3 (single isomer, unassigned) [Compound 88A, (23b*R, Z)-16,17-difluoro-6-hydroxy-10,13,18,23b-tetrahydro-9H-1,8-methano[1]benzothiepino[5,4,3-lm]pyrido[2,1-i][1,7,10,11]benzoxatriazacyclotetradecine-5,7-dione] | > 500 | > 1000 |
| O=C1c2c(O)c(=O)ccn2N2CN1CC/C=C\COc1cc(F)c(F)c3c1[C@H]2c1ccccc1SC3 (single isomer, unassigned) [Compound 88B, (23b*S, Z)-16,17-difluoro-6-hydroxy-10,13,18,23b-tetrahydro-9H-1,8-methano[1]benzothiepino[5,4,3-1m]pyrido[2,1-i][1,7,10,11]benzoxatriazacyclotetradecine-5,7-dione] | 1 | > 200 |
| O=C1c2c(O)c(=O)ccn2N2CN1CC/C=C/COc1cc(F)c(F)c3c1[C@@H]2c1ccccc1SC3 (single isomer, unassigned) [Compound 88C, (23b*R, E)-16,17-difluoro-6-hydroxy-10,13,18,23b-tetrahydro-9H-1,8-methano[1]benzothiepino[5,4,3-lm]pyrido[2,1-i][1,7,10,11]benzoxatriazacyclotetradecine-5,7-dione] | > 500 | > 1000 |
| O=C1c2c(O)c(=O)ccn2N2CN1CC/C=C/COc1cc(F)c(F)c3c1[C@H]2c1ccccc1SC3 (single isomer, unassigned) [Compound 88D, (23b*S, E)-16,17-difluoro-6-hydroxy-10,13,18,23b-tetrahydro-9H-1,8-methano[1]benzothiepino[5,4,3-lm]pyrido[2,1-i][1,7,10,11]benzoxatriazacyclotetradecine-5,7-dione] | 1 | > 100 |
